Data as given in patent US9255094B2, “Pyrido[4,3-B]indoles and methods of use” (Medivation Technologies, Inc., priority 2009, dated 2016).

Key:
[1] = biological target: T1, human recombinant serotonin (5-Hydroxytryptamine) 5-HT2A receptor (Homo sapiens, UniProt P28223); assay: Serotonin 5-HT2A radioligand binding assay ([3H]Ketanserin); conditions: 0.5 nM [3H]Ketanserin, CHO-K1 cells; for inhibition at 0.1 µM: compound at 0.1 μM, read-out: Percent Inhibition of ligand binding, Serotonin (0.1 μM) 5-HT2A
T1 construct: expressed in transfected cells; host or cells: Chinese hamster ovary (CHO-K1) cells
Protocol: (§1) Compounds of the invention were incubated with 0.5 nM [^3H]Ketanserin for 60 min at 25° C. Non-specific binding was estimated in the presence of 1 μM Mianserin. Receptor proteins were filtered and washed, the filters were then counted to determine [^3H]Ketanserin specifically bound. Compounds were screened at 1 μM or lower, using 1% DMSO as vehicle. Biochemical assay results are presented as the percent inhibition of specific binding in Table 4.

[2] = biological target: human recombinant dopamine D2L receptor (Homo sapiens, UniProt P14416); assay: Dopamine D2L radioligand binding assay ([3H]Spiperone); conditions: compound at 1 μM, 0.16 nM [3H]Spiperone, CHO cells, read-out: Percent Inhibition of ligand binding, Dopamine (1μM)
Protocol: Compounds of the invention were incubated with 0.16 nM [^3H]Spiperone for 120 min at 25° C. Non-specific binding was estimated in the presence of 10 μM Haloperidol. Receptor proteins were filtered and washed, the filters were then counted to determine [^3H]Spiperone specifically bound. Compounds were screened at 1 μM or lower, using 1% DMSO as vehicle. Biochemical assay results are presented as the percent inhibition of specific binding in Table 3.

[3] = biological target: human recombinant histamine H1 receptor (Homo sapiens, UniProt P35367); assay: Histamine H1 radioligand binding assay ([3H]Pyrilamine); conditions: compound at 1 μM, receptor expressed in CHO cells
Protocol: To evaluate in radioligand binding assays the activity of compounds of the invention, human recombinant histamine H1 receptor expressed in Chinese hamster ovary (CHO) cells (De Backer, M. D. et al., Biochem. Biophys. Res. Comm. 197(3):1601, 1993) in a modified Tris-HCl buffer (50 mM Tris-HCl, pH 7.4, 2 mM MgCl2, 100 mM NaCl, 250 mM Sucrose) was used. Compounds of the invention were incubated with 1.2 nM [^3H]Pyrilamine for 180 min at 25° C. Non-specific binding was estimated in the presence of 1 μM pyrilamine Receptor proteins were filtered and washed, the filters were then counted to determine [^3H]Pyrilamine specifically bound. Compounds were screened at 1 μM or lower, using 1% DMSO as vehicle. Biochemical assay results are presented as the percent inhibition of specific binding in Table 2.

[4] = biological target: human recombinant serotonin (5-Hydroxytryptamine) 5-HT7 receptor (Homo sapiens, UniProt P34969); assay: Serotonin 5-HT7 radioligand binding assay ([3H]LSD); conditions: compound at 0.1 μM; 5.5 nM [3H]LSD; CHO cells; read-out: Percent Inhibition of ligand binding, Serotonin (0.1 μM) 5-HT7
Protocol: Compounds of invention were incubated with 5.5 nM [^3H] Lysergic acid diethylamide (LSD) for 2 h at 25° C. […] Receptor proteins were filtered and washed, the filters were then counted to determine [^3H]LSD specifically bound. Compounds were screened at 1 μM or lower, using 1% DMSO as vehicle. Biochemical assay results are presented as the percent inhibition of specific binding in Table 4.

[5] = biological target: T2, human recombinant serotonin (5-Hydroxytryptamine) 5-HT2C receptor (Homo sapiens, UniProt P28335); assay: Serotonin 5-HT2C radioligand binding assay ([3H]Mesulergine); conditions: compound at 0.1 μM; 1 nM [3H]Mesulergine; CHO-K1 cells; read-out: Percent Inhibition of ligand binding, Serotonin (0.1 μM) 5-HT2C
T2 construct: expressed in transfected cells; host or cells: Chinese hamster ovary (CHO-K1) cells
T2 sequence (P28335 33-458): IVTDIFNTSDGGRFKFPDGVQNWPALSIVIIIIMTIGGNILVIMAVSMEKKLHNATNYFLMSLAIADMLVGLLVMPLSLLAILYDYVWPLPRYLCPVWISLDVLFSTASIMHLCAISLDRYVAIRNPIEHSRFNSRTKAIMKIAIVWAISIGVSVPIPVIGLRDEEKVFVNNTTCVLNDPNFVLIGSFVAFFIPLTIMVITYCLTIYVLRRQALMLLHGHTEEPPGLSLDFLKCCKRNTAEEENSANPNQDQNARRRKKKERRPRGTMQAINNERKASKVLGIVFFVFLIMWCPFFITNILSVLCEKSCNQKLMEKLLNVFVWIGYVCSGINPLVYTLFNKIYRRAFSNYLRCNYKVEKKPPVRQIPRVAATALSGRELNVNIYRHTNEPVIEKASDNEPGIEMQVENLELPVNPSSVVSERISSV
Protocol: as §1, with “1” for “0.5”, “[^3H]Mesulergine” for “[^3H]Ketanserin”

[6] = biological target: T3, human recombinant serotonin (5-Hydroxytryptamine) 5-HT6 receptor (Homo sapiens, UniProt P50406); assay: Serotonin 5-HT6 radioligand binding assay ([3H]LSD); conditions: compound at 0.1 μM, HeLa cells, read-out: Percent Inhibition of ligand binding, Serotonin (0.1 μM) 5-HT6
T3 construct: expressed in transfected cells; host or cells: human HeLa cells
Protocol: Compounds of the invention were incubated with 1.5 nM [3H]Lysergic acid diethylamide (LSD) for 120 min at 37° C. […] Receptor proteins were filtered and washed, the filters were then counted to determine [3H]LSD specifically bound. Compounds were screened at 1 μM or lower, using 1% DMSO as vehicle. Biochemical assay results are presented as the percent inhibition of specific binding in Table 4.

T3 sequence (P50406 whole entry): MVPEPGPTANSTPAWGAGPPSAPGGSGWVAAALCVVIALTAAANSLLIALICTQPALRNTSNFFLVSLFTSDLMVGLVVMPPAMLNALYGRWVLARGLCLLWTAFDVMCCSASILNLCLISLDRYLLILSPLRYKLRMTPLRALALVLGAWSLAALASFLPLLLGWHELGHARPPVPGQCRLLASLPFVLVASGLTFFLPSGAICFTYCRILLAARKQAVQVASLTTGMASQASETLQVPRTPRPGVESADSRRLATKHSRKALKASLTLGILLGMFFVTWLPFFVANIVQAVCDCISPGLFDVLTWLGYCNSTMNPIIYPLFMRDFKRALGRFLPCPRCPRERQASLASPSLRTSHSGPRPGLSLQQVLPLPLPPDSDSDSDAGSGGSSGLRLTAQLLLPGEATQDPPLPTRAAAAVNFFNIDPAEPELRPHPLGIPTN
T1 sequence (P28223 whole entry): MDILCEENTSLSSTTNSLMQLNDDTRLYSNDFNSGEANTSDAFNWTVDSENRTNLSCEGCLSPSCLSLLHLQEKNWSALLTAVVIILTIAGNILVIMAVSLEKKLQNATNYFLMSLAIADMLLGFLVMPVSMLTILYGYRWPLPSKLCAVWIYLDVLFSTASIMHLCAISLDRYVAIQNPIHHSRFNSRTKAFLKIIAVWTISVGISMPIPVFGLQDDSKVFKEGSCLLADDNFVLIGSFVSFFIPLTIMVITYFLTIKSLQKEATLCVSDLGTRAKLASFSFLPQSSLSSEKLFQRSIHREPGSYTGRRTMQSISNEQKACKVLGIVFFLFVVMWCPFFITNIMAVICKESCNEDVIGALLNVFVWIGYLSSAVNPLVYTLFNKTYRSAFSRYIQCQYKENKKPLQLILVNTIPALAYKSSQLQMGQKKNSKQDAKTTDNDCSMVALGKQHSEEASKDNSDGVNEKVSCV
Sequence of human recombinant serotonin (5-Hydroxytryptamine) 5-HT7 receptor (P34969 whole entry): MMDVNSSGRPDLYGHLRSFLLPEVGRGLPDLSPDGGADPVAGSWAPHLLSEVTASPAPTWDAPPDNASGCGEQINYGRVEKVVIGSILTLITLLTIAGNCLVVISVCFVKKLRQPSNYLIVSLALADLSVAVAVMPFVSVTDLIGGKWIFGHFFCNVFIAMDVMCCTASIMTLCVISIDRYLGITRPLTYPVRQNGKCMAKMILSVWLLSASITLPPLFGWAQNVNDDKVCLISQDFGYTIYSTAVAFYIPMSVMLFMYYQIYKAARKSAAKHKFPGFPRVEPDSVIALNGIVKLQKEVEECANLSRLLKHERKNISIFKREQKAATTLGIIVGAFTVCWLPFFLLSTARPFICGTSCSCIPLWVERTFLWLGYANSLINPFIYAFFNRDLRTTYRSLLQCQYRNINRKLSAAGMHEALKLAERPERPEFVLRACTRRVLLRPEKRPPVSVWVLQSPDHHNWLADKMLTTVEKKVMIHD
Sequence of human recombinant dopamine D2L receptor (P14416 whole entry): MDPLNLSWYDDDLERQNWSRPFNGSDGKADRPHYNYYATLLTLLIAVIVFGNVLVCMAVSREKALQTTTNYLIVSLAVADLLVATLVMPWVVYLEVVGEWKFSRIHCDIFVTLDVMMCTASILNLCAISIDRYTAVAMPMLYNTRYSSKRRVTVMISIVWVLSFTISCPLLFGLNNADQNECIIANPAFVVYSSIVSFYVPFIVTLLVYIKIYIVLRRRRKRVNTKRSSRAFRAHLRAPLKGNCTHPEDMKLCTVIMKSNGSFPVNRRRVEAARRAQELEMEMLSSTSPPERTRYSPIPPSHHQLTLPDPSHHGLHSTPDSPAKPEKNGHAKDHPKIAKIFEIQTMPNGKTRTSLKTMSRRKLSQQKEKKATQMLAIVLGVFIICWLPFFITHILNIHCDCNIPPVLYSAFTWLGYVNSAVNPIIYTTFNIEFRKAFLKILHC
Sequence of human recombinant histamine H1 receptor (P35367 whole entry): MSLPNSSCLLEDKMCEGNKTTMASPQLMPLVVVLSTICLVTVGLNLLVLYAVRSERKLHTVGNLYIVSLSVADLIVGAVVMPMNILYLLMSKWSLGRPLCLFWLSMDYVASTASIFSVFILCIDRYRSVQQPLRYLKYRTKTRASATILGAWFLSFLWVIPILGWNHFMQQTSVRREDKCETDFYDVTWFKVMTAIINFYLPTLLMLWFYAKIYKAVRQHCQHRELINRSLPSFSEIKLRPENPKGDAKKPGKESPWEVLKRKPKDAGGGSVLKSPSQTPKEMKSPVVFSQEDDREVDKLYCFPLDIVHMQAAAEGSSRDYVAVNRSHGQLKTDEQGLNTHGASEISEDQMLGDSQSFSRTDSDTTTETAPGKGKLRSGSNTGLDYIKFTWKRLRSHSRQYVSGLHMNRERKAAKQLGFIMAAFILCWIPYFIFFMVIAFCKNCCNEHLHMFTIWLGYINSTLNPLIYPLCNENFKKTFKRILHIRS

Cc1ccc2c(c1)c1c(n2CC(O)(c2ccc(F)cc2)C2CCCCC2)CCN(C)C1 (centres unmarked) [Compound 1-1, 1-cyclohexyl-2-(2,8-dimethyl-3,4-dihydro-1H-pyrido[4,3-b]indol-5(2H)-yl)-1-(4-fluorophenyl)ethanol]
inhibition at 0.1 µM [1]: 60%
inhibition at 1 µM ([1]; compound at 1 μM, read-out: Percent Inhibition of ligand binding, Serotonin (1 μM) 5-HT2A): 97%
inhibition at 1 µM [2]: 13%
inhibition at 1 µM [3]: 22%

CCC(O)(Cn1c2c(c3cc(C)ccc31)CN(C)CC2)c1ccncc1 (centres unmarked) [Compound 1-24, 1-(2,8-dimethyl-3,4-dihydro-1H-pyrido[4,3-b]indol-5(2H)-yl)-2-(pyridin-4-yl)butan-2-ol]
inhibition at 0.1 µM [4]: 12%
inhibition at 0.1 µM [1]: 36%
inhibition at 0.1 µM [5]: 8%
inhibition at 0.1 µM [6]: 10%
inhibition at 1 µM [2]: 9%

Cc1ccc2c(c1)c1c(n2CC(C)(O)c2ccncc2)CCN(CC(F)(F)F)C1 (centres unmarked) [Compound 1-29, 1-(8-methyl-2-(2,2,2-trifluoroethyl)-3,4-dihydro-1H-pyrido[4,3-b]indol-5(2H)-yl)-2-(pyridin-4-yl)propan-2-ol]
inhibition at 0.1 µM [4]: 2%
inhibition at 0.1 µM [1]: 11%
inhibition at 0.1 µM [5]: 3%
inhibition at 0.1 µM [6]: 2%

Cc1ccc2c(c1)c1c(n2CC(C)(O)c2ccncc2)CCN(C2CC2)C1 (centres unmarked) [Compound 1-30, 1-(2-cyclopropyl-8-methyl-3,4-dihydro-1H-pyrido[4,3-b]indol-5(2H)-yl)-2-(pyridin-4-yl)propan-2-ol]
inhibition at 0.1 µM [4]: 6%
inhibition at 0.1 µM [1]: 14%
inhibition at 0.1 µM [5]: 4%
inhibition at 0.1 µM [6]: 1%

COc1cccc2c3c(n(CC(C)(O)c4ccncc4)c12)CCN(C)C3 (centres unmarked) [Compound 1-31, 1-(6-methoxy-2-methyl-3,4-dihydro-1H-pyrido[4,3-b]indol-5(2H)-yl)-2-(pyridin-4-yl)propan-2-ol]
inhibition at 0.1 µM [4]: -1%
inhibition at 0.1 µM [1]: 8%
inhibition at 0.1 µM [5]: 5%
inhibition at 0.1 µM [6]: -7%

CC(C)c1ccc2c3c(n(CC(C)(O)c4ccncc4)c2c1)CCN(C)C3 (centres unmarked) [Compound 1-32, 1-(7-isopropyl-2-methyl-3,4-dihydro-1H-pyrido[4,3-b]indol-5(2H)-yl)-2-(pyridin-4-yl)propan-2-ol]
inhibition at 0.1 µM [4]: 31%
inhibition at 0.1 µM [1]: -6%
inhibition at 0.1 µM [5]: -6%
inhibition at 0.1 µM [6]: -1%

Cc1ccc2c(c1)c1c(n2CC(C)(O)c2ccncc2)CC(C)N(C)C1 (centres unmarked) [Compound 1-33, 2-(pyridin-4-yl)-1-(2,3,8-trimethyl-3,4-dihydro-1H-pyrido[4,3-b]indol-5(2H)-yl)propan-2-ol]
inhibition at 0.1 µM [4]: 40%
inhibition at 0.1 µM [1]: 43%
inhibition at 0.1 µM [5]: 56%
inhibition at 0.1 µM [6]: -1%

Cc1ccc2c(c1)c1c(n2CCc2ccc(C)nc2)CC(C)N(C)C1 (centres unmarked) [Compound 1-44, 2,3,8-trimethyl-5-(2-(6-methylpyridin-3-yl)ethyl)-2,3,4,5-tetrahydro-1H-pyrido[4,3-b]indole]
inhibition at 0.1 µM [4]: 74%
inhibition at 0.1 µM [1]: 16%
inhibition at 0.1 µM [5]: 45%
inhibition at 0.1 µM [6]: 46%
inhibition at 1 µM [2]: 8%
inhibition at 1 µM [3]: 100%

Cc1ccc2c(c1)c1c(n2CCc2ccc(C(F)(F)F)nc2)CC(C)N(C)C1 (centres unmarked) [Compound 1-45, 2,3,8-trimethyl-5-(2-(6-(trifluoromethyl)pyridin-3-yl)ethyl)-2,3,4,5-tetrahydro-1H-pyrido[4,3-b]indole]
inhibition at 0.1 µM [4]: 78%
inhibition at 0.1 µM [1]: 51%
inhibition at 0.1 µM [5]: 50%
inhibition at 0.1 µM [6]: 18%
inhibition at 1 µM [2]: 0%
inhibition at 1 µM [3]: 96%

Cc1ccc2c(c1)c1c(n2CC(C)c2ccc(C)nc2)CC(C)N(C)C1 (centres unmarked) [Compound 1-47, 2,3,8-trimethyl-5-(2-(6-methylpyridin-3-yl)propyl)-2,3,4,5-tetrahydro-1H-pyrido[4,3-b]indole]
inhibition at 0.1 µM [4]: 85%
inhibition at 0.1 µM [1]: 46%
inhibition at 0.1 µM [5]: 70%
inhibition at 0.1 µM [6]: 19%
inhibition at 1 µM [2]: 12%
inhibition at 1 µM [3]: 91%
